Measurements reported in PubChem BioAssay (NCI).
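Tested at 5 concentrations; 48 h exposure; 96-well plates; endpoints linearly interpolated, else capped at highest concentration. GI50 marks 50% less growth. TGI is the concentration that stops growth completely.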

Legend:
Experiment in all cases: growth of human tumour cells (NCI), 48 h
[1] = tested on: OVCAR-5 ovarian
[2] = tested on: CAKI-1 renal
[3] = tested on: SK-OV-3 ovarian
[4] = tested on: SNB-75 CNS
[5] = tested on: MALME-3M melanoma
[6] = tested on: LOX IMVI melanoma
[7] = tested on: T-47D breast
[8] = tested on: A549 NSCLC
[9] = tested on: SW-620 colon
[10] = tested on: SK-MEL-2 melanoma
[11] = tested on: UACC-257 melanoma
[12] = tested on: TK-10 renal
[13] = tested on: HS 578T breast
[14] = tested on: HCT-15 colon
[15] = tested on: SR leukemia
[16] = tested on: BT-549 breast
[17] = tested on: NCI-H226 lung
[18] = tested on: IGROV1 ovarian
[19] = tested on: SF-268 CNS
[20] = tested on: SF-295 CNS
[21] = tested on: SK-MEL-28 melanoma
[22] = tested on: UO-31 renal
[23] = tested on: MOLT-4 leukemia
[24] = tested on: OVCAR-8 ovarian
[25] = tested on: OVCAR-4 ovarian
[26] = tested on: A498 renal
[27] = tested on: CCRF-CEM leukemia
[28] = tested on: NCI-H522 lung
[29] = tested on: HCT-116 colon
[30] = tested on: SN12C renal
[31] = tested on: KM12 colon
[32] = tested on: K-562 leukemia
[33] = tested on: SF-539 CNS
[34] = tested on: RXF 393 renal
[35] = tested on: HL-60(TB) leukemia
[36] = tested on: RPMI-8226 leukemia
[37] = tested on: DU-145 prostate
[38] = tested on: NCI-H460 lung
[39] = tested on: UACC-62 melanoma
[40] = tested on: MCF7 breast
[41] = tested on: MDA-MB-231 breast
[42] = tested on: M14 melanoma
[43] = tested on: HCC-2998 colon
[44] = tested on: U251 CNS
[45] = tested on: OVCAR-3 ovarian
[46] = tested on: SNB-19 CNS
[47] = tested on: HOP-92 NSCLC
[48] = tested on: NCI/ADR-RES ovarian
[49] = tested on: SK-MEL-5 melanoma
[50] = tested on: NCI-H23 lung
[51] = tested on: HOP-62 NSCLC
[52] = tested on: COLO 205 colon
[53] = tested on: HT29 colon
[54] = tested on: PC-3 prostate
[55] = tested on: ACHN renal
[56] = tested on: 786-0 renal
[57] = tested on: MDA-MB-435

CC(NNC(=S)N1CCCCCC1)c1ccc2ccccc2n1 (centres undefined)
GI50 [1]: 9.5 µM
TGI [1]: 38.5 µM
GI50 [2]: 0.456 µM
TGI [2]: 10.8 µM
GI50 [3]: 6.24 µM
TGI [3]: 26.9 µM
GI50 [4]: 12.5 µM
TGI [4]: 27.5 µM
GI50 [5]: 3.15 µM
TGI [5]: 37.8 µM
GI50 [6]: 2.56 µM
TGI [6]: 15.5 µM
GI50 [7]: 1.91 µM
TGI [7]: 28.7 µM
GI50 [8]: 1.13 µM
TGI [8]: 27 µM
GI50 [9]: 3.23 µM
TGI [9]: 33.2 µM
GI50 [10]: 13.8 µM
TGI [10]: 41.5 µM
GI50 [11]: 1.74 µM
TGI [11]: 17 µM
GI50 [12]: 1.21 µM
TGI [12]: 21 µM
GI50 [13]: 14.5 µM
TGI [13]: > 100 µM
GI50 [14]: 1.06 µM
TGI [14]: 51.6 µM
GI50 [15]: 0.759 µM
TGI [15]: > 48.9 µM
GI50 [16]: 7.45 µM
TGI [16]: 58.9 µM
GI50 [17]: 2.74 µM
TGI [17]: 23.2 µM
GI50 [18]: 1.85 µM
TGI [18]: 51.3 µM
GI50 [19]: 1.72 µM
TGI [19]: 43.7 µM
GI50 [20]: 0.843 µM
TGI [20]: 13.2 µM
GI50 [21]: 5.18 µM
TGI [21]: 40.4 µM
GI50 [22]: 0.478 µM
TGI [22]: 14.1 µM
GI50 [23]: 2.18 µM
TGI [23]: > 55.5 µM
GI50 [24]: 1.06 µM
TGI [24]: > 58.7 µM
GI50 [25]: 0.0701 µM
TGI [25]: 13.8 µM
GI50 [26]: 4.61 µM
TGI [26]: 22.1 µM
GI50 [27]: 0.765 µM
TGI [27]: > 100 µM
GI50 [28]: 2.69 µM
TGI [28]: 21.6 µM
GI50 [29]: 0.688 µM
TGI [29]: 17.8 µM
GI50 [30]: 1.84 µM
TGI [30]: > 57.3 µM
GI50 [31]: 2.57 µM
TGI [31]: 41.4 µM
GI50 [32]: 2.14 µM
TGI [32]: > 100 µM
GI50 [33]: 1.68 µM
TGI [33]: 12.6 µM
GI50 [34]: 4.7 µM
TGI [34]: 21.2 µM
GI50 [35]: 0.363 µM
TGI [35]: 12.1 µM
GI50 [36]: 5.36 µM
TGI [36]: > 100 µM
GI50 [37]: 2.22 µM
TGI [37]: 18.2 µM
GI50 [38]: 1.05 µM
TGI [38]: > 78.9 µM
GI50 [39]: 1.69 µM
TGI [39]: 11.5 µM
GI50 [40]: 0.338 µM
TGI [40]: 15.2 µM
GI50 [41]: 2.03 µM
TGI [41]: 20.5 µM
GI50 [42]: 1.85 µM
TGI [42]: 11.7 µM
GI50 [43]: 3.35 µM
TGI [43]: 22.6 µM
GI50 [44]: 0.92 µM
TGI [44]: 20.4 µM
GI50 [45]: 0.41 µM
TGI [45]: 18.8 µM
GI50 [46]: 4.16 µM
TGI [46]: > 100 µM
GI50 [47]: 0.769 µM
TGI [47]: 34.3 µM
GI50 [48]: 2.29 µM
TGI [48]: > 100 µM
GI50 [49]: 1.95 µM
TGI [49]: 14.8 µM
GI50 [50]: 11.8 µM
TGI [50]: > 87.1 µM
GI50 [51]: 3.93 µM
TGI [51]: > 100 µM
GI50 [52]: 0.284 µM
TGI [52]: 19 µM
GI50 [53]: 2.54 µM
TGI [53]: 31.1 µM
GI50 [54]: 2.07 µM
TGI [54]: > 63 µM
GI50 [55]: 0.66 µM
TGI [55]: 14.6 µM
GI50 [56]: 3.38 µM
TGI [56]: 16.8 µM
GI50 [57]: 2.25 µM
TGI [57]: 21.4 µM
